According to paper PMC7802073, “Small Molecule Inhibitors of the Bacterioferritin (BfrB)–Ferredoxin (Bfd) Complex Kill Biofilm-Embedded Pseudomonas aeruginosa Cells” (ACS Infectious Diseases, 2020):

Assays:
Format in all cases: cell-based, Pseudomonas aeruginosa
P. aeruginosa PAO1 = assay: microbe, parasite or virus in culture; conditions: for secreted pyoverdine relative to untreated control, fluorescence at 460 nm normalized to CFU/mL: KM-5-25 70 μM or KM-5-66 50 μM, 27 h, M63 media; for viability at 50 µM: Pseudomonas aeruginosa, PAO1, 27 h, read-out: viable cells relative to the untreated control
Procedure: Cultures of P. aeruginosa PAO1 treated with KM-5-25 (70 μM) or KM-5-66 (50 μM) were grown for 27 h prior to diluting the contents of each well in PBS (pH 7.4) and plating the cells on PIA plates for enumeration of CFU/mL. The 500-fold diluted solution was clarified by centrifugation and the pyoverdine in the cell-free supernatant was analyzed by acquiring fluorescence emission spectra (430–550 nm) with excitation at 400 nm (10 nm slit width) and emission at λmax = 460 nm (10 nm slit width) using a PerkinElmer LS50B spectrophotometer.
Figure S5. P. aeruginosa cells treated with 4-aminoisoindoline-1,3-dione derivatives overproduce pyoverdine. (A) P. aeruginosa cultures treated with KM-5-25 (70 µM) or KM-5-66 (50 µM) for 27 h have ~35% of the viable cells in the untreated control. (B) Fluorescence spectra from cell -free supernatant corresponding to untreated cultures ( solid line), treated with KM-5-25 (dashed line), or treated with KM-5-66 (dotted line). (C) Fluorescence intensity normalized to the number of viable […]
pyoverdine than cells in the untreated control. Averages and standard deviations for 3 biological replicates are shown. p < 0.01 denoted by ** and p < 0.001 by *** relative to untreated.
(1 picture or pasted object on this page, not shown here)

[1] = test system: iron stored in BfrB in pellicle-embedded P. aeruginosa PAO1 cells; assay: Iron stored in BfrB, native PAGE stained with Ferene S, densitometry; conditions: 2-day old pellicles, 24 h, KM-5-25 40 μM or KM-5-66 20 μM
[2] = test system: P. aeruginosa PAO1 cells dispersed from pellicles; assay: Total intracellular iron in biofilm-embedded cells; conditions: 2-day old pellicles, 24 h, KM-5-25 40 μM or KM-5-66 20 μM
Procedure: Pellicle biofilms were grown for 48 h as described above. The pellicles were transferred onto square (2 × 2 cm) glass coverslips by gently contacting the pellicle with the coverslip. […] After the zirconia beads had sedimented, a 100 μL aliquot was sampled from the cell suspension for plating and enumeration of viable cells and a 14 mL sample was used to harvest the cells by centrifugation (20 min, 400 rpm). The cell pellet was resuspended in 1 mL PBS, transferred to a 1.5 mL microcentrifuge tube, centrifuged for 10 min at 12 500 rpm at 4 °C and the cell pellet frozen at −80 °C. The frozen cells were subjected to three freeze–thaw cycles and then lysed by addition of 200 μL of lysis buffer (50 mM Tris-HCl buffer (pH 8.0) containing 10% (v/v) glycerol, 20 mg/mL lysozyme, 0.2 mg/mL DNase, 0.1 M NaCl, 1 mM MgSO4 and 1% (v/v) Triton-X100) and incubated at ambient temperature (30 min) and at 37 °C (30 min). […] Levels of total intracellular iron were determined as reported previously:[23],[87] […] The iron concentration was measured from the absorbance of the Fe^2+–Ferene S complex (ε593 = 34.5 mM^–1 cm^–1),[88] normalized by the viable cell counts and reported as Fe atoms per cell.

[3] = test system: P. aeruginosa clinical isolate PA_1076058; assay: Viable cells (CFU/mL) dispersed from pellicle biofilms of a clinical isolate; conditions: PA_1076058 pellicles, 24 h, 1.2× IC50 (KM-5-25 80 μM, KM-5-66 50 μM)
Procedure: (§1) Pellicle biofilms were grown as described above.

[4] = test system: P. aeruginosa clinical isolate PA_1081725; assay: as above; conditions: PA_1081725 pellicles, 24 h, 1.2× IC50 (KM-5-25 80 μM, KM-5-66 50 μM)
Procedure: as §1

Row | Structure (SMILES) | secreted pyoverdine relative to untreated control, fluorescence at 460 nm normalized to CFU/mL (P. aeruginosa PAO1) [fold] | viability at 50 µM (P. aeruginosa PAO1) [%] | iron in BfrB relative to cells in untreated pellicles (Ferene S band peak area) [1] [fold] | total intracellular iron normalized to viable cell counts, relative to untreated biofilms [2] [fold] | reduction of viable cells [3] | reduction of viable cells [4]
1 | O=C1NC(=O)c2c(NCc3cc(Cl)ccc3O)cccc21 [KM-5-25, 4-((5-Chloro-2-hydroxybenzyl)amino)isoindoline-1,3-dione] | ~5 | ~35 | ~3 | ~2.5 | approximately 80% | approximately 80%
2 | O=C1NC(=O)c2c(NCCCc3cc(O)cc(Cl)c3)cccc21 [KM-5-66, 4-((3-(3-Chloro-5-hydroxyphenyl)propyl)amino)isoindoline-1,3-dione] | ~5 | ~35 | ~3 | ~2.5 | approximately 80% | approximately 80%
